The values below come from US10709678B2, “Methods of reducing risk of cardiovascular disease” (NEUROBO PHARMACEUTICALS, INC., priority 2012, dated 2020).

The test system of assay [1] is LDL-C. The note with it: lovastatin 40 mg twice daily; cited from earlier work.
For assay [2], the system named is LDL-C. Particulars: monotherapy, ezetimibe 10 mg; cited from earlier work.
The test system of another assay is obese female Zucker rats. The note with it: cited from earlier work.
For assay [3], the system named is hypercholesterolemic patients. Kind of assay: Framingham Risk Score, baseline vs week 8, in the same phase 2 study. It is filed as in vivo, human. Particulars: 300 mg and 900 mg QD. The method, then: As used herein, references to 10-year risk are calculated using the Framingham point scores as provided in Tables 1 and 2, for men and women respectively. The patients' Framingham Risk Score was calculated at baseline. The Framingham risk score calculation takes into account: age, gender, systolic blood pressure level (+/−treatment), HDL cholesterol level, and smoker status. […] Significance was determined using the SAS Proc Univariate which provides p values from the student's paired t-test and the Wilcoxon Signed Rank test.

In assay [4] the test system is LDL-C. The note with it: cited from earlier work.
Assay [5] has as its system hypercholesterolemic patients. Kind of assay: 8-week double-blind placebo-controlled phase 2 study of gemcabene added to a stable statin dose: LDL-C. Type of assay: in vivo, human. Particulars: on stable statin, placebo reduction 7.9%, p<0.01. Here is the method:
An 8-week, double-blind, placebo-controlled, randomized, multicenter, phase 2 study in hypercholesterolemic patients on a stable dose of statin (on statin therapy for at least the previous 3 months) was conducted to evaluate the efficacy of gemcabene in the further reduction of LDL-C in these patients.
A total of 66 hypercholesterolemic patients were treated in this study: 22 randomized to gemcabene 900 mg, 20 randomized to gemcabene 300 mg, and 24 randomized to placebo.
Patients included in the study were men and women ≥18 and ≤65 years of age with hypercholesterolemia and an LDL-C level at screening of ≥130 mg/dL while on a stable (3-months) dose of a statin. Patients were required to maintain their current dose of statin throughout the course of the study. […]
Percent change from base line was calculated as follows: Percent Change From Baseline=[(final value−baseline value)/baseline value]×100%. […]

Read-outs that look alike come from different tables or passages of the source.

As for `CC[C@H](C)C(=O)O[C@H]1C[C@@H](C)C=C2C=C[C@H](C)[C@H](CC[C@@H]3C[C@@H](O)CC(=O)O3)[C@H]21` [lovastatin], the LDL-C lowered in the assay on LDL-C [1] was 35.5%.

With `O=C1[C@H](CC[C@H](O)c2ccc(F)cc2)[C@@H](c2ccc(O)cc2)N1c1ccc(F)cc1` [ezetimibe], the LDL-C lowered in the assay on LDL-C [2] is reported as 16%.

With `CC(C)(CCCCCC(O)CCCCCC(C)(C)C(=O)O)C(=O)O` [ESP 55016], in the assay on obese female Zucker rats, the HDL-C entry is “raising”, the non-HDL-C entry is reported as “effective in lowering” and the triglyceride levels result is “decreasing”.

On to `CC(C)(CCCCOCCCCC(C)(C)C(=O)O)C(=O)O` [gemcabene, 6,6′-oxybis-(2,2′-dimethylhexanoic acid)], for which, in assay [3], the “Framingham Risk Score compared with statin treatment alone” value is reported as “significantly reduced”. For the same compound, the “decrease in LDL-C beyond atorvastatin monotherapy” value was 3.8% with LDL-C [4] (300 mg gemcabene with atorvastatin (aggregated over 10, 40 and 80 mg)); 6.1% with LDL-C [4] (600 mg gemcabene with atorvastatin (aggregated over 10, 40 and 80 mg)); 7.4% in the assay on LDL-C [4] (900 mg gemcabene with atorvastatin (aggregated over 10, 40 and 80 mg)). The “LDL-C lowered from baseline at Week 8, median” value in assay [5] (300 mg per day) came out at 24.8%; in assay [5] (900 mg per day), 31.0%.
